# Read-outs that look alike come from different tables or passages of the source.
# Columns and labels:
# uOR [1] = target: T1, uOR (Mus musculus, UniProt P42866); assay: Agonist induced ERK 1/2 phosphorylation (efficacy and potency relative to DAMGO)
# uOR [2] = target: T1, uOR; assay: β-arrestin recruitment to uOR / receptor internalization; assay type: cell-based; design: expressed in transfected cells
# Text: The data provided in Tables 1A and 1B below were obtained using standard analytical techniques known to those skilled in the art. Such techniques are described in detail in C.
# […] were transiently transfected (electroporation) with combinations of cDNA for hemagglutinin (HA-N terminus)-tagged uOR, beta-arrestin2 tagged with green fluorescent protein, mouse uOR tagged at the C terminus with yellow fluorescent protein and GRK-2. […] After addition of drug, cells were visualized using confocal microscopy. Multiple cells were recorded per dish after more than four separate transfection experiments—representative cells are shown in the manuscript.
# The “β-arrestin Recruitment EC50±SEM” column in Table 2 below represents the degree to which each tested compound recruited beta-arrestin to interact with uOR. As will be appreciated by those skilled in the art, EC50 refers to the concentration of a drug which induces a response halfway between the baseline and maximum after a specified exposure time. In this instance, lower values indicate greater potency of the molecule, and this is […].
# As will also be understood by those skilled in the art, “Max Fold Efficacy” refers to the maximum signal/background ratio that an agonist will induce or, conversely, that an antagonist will inhibit an agonist from inducing a response. In Table 2 below, the “Max Fold Efficacy” column indicates the strength of the signal increase over the control/background measurement for uOR receptor internalization at the E.C. 50.
# [3] = maximum signal/background ratio for uOR receptor internalization at the EC50
# [4] = recruitment of beta-arrestin to interact with uOR, bound given in μM, read-out: β-arrestin Recruitment EC50 ± SEM
# T1 sequence (P42866 whole entry): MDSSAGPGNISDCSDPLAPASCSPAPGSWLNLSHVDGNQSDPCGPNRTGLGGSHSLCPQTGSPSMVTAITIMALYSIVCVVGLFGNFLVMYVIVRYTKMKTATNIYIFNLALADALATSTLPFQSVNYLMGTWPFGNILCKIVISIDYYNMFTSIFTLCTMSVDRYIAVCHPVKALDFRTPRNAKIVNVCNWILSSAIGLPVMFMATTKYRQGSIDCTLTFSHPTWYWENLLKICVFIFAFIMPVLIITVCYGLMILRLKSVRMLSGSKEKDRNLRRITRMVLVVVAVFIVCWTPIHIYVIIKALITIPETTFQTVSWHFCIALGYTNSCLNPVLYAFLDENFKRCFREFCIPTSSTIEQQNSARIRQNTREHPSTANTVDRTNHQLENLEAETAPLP
Compound,EC50 (uOR [1]) [nM],EC50 (uOR [2]) [µM],Max Fold Efficacy (uOR [2]; [3]),EC50 (uOR [2]; [4]) [µM],Max Fold Efficacy (uOR [2])
COC(=O)[C@@H]1C[C@H](NC(=O)c2ccccc2)C(=O)[C@H]2[C@@]1(C)CC[C@H]1C(=O)O[C@H](c3ccoc3)C[C@]21C,0.232,9.19 ± 2.75,21.73,,
COC(=O)[C@@H]1C[C@H](OC(=O)c2ccc(C(F)(F)F)cc2)C(=O)[C@H]2[C@@]1(C)CC[C@H]1C(=O)O[C@H](c3ccoc3)C[C@]21C,930,,,> 10,
COC(=O)[C@@H]1C[C@H](OC(=O)c2ccccc2)C(=O)[C@H]2[C@@]1(C)CC[C@H]1C(=O)O[C@H](c3ccoc3)C[C@]21C,1110,,2.4,> 10,
COC(=O)[C@@H]1C[C@H](OC(=O)Nc2ccccc2)C(=O)[C@H]2[C@@]1(C)CC[C@H]1C(=O)O[C@H](c3ccoc3)C[C@]21C,1200,,,> 10,
COC(=O)[C@@H]1C[C@H](OC(=O)c2ccc(F)cc2)C(=O)[C@H]2[C@@]1(C)CC[C@H]1C(=O)O[C@H](c3ccoc3)C[C@]21C,1640,,2.2,> 10,
COC(=O)[C@@H]1C[C@H](OC(=O)Nc2ccc(Cl)c(Cl)c2)C(=O)[C@H]2[C@@]1(C)CC[C@H]1C(=O)O[C@H](c3ccoc3)C[C@]21C,1850,,,> 10,
COC(=O)[C@@H]1C[C@H](OC(=O)Nc2ccc(SC(F)(F)F)cc2)C(=O)[C@H]2[C@@]1(C)CC[C@H]1C(=O)O[C@H](c3ccoc3)C[C@]21C,2300,,,> 10,
COC(=O)[C@@H]1C[C@H](OC(=O)c2ccc(OC)cc2)C(=O)[C@H]2[C@@]1(C)CC[C@H]1C(=O)O[C@H](c3ccoc3)C[C@]21C,3500,,3.1,> 10,
COC(=O)[C@@H]1C[C@H](NC(=O)Nc2ccc(C#N)cc2)C(=O)[C@H]2[C@@]1(C)CC[C@H]1C(=O)O[C@H](c3ccoc3)C[C@]21C,4290,,,> 10,
COC(=O)[C@@H]1C[C@H](NC(=O)NS(=O)(=O)c2ccc(Cl)cc2)C(=O)[C@H]2[C@@]1(C)CC[C@H]1C(=O)O[C@H](c3ccoc3)C[C@]21C,> 10000,,,> 10,
CCc1ncc(C(=O)O[C@H]2C[C@@H](C(=O)OC)[C@]3(C)CC[C@H]4C(=O)O[C@H](c5ccoc5)C[C@]4(C)[C@H]3C2=O)cn1,917,,5.1,> 10,
COC(=O)[C@@H]1C[C@H](OC(=O)c2cnc(C)cn2)C(=O)[C@H]2[C@@]1(C)CC[C@H]1C(=O)O[C@H](c3ccoc3)C[C@]21C,1280,,1.8,> 10,
COC(=O)[C@@H]1C[C@H](OC(=O)Nc2ncc(C)s2)C(=O)[C@H]2[C@@]1(C)CC[C@H]1C(=O)O[C@H](c3ccoc3)C[C@]21C,1280,,,> 10,
COC(=O)[C@@H]1C[C@H](OC(=O)c2cc(C)on2)C(=O)[C@H]2[C@@]1(C)CC[C@H]1C(=O)O[C@H](c3ccoc3)C[C@]21C,1750,,1.3,> 10,
COC(=O)[C@@H]1C[C@H](OC(=O)c2ccon2)C(=O)[C@H]2[C@@]1(C)CC[C@H]1C(=O)O[C@H](c3ccoc3)C[C@]21C,3780,,1,> 10,
COC(=O)[C@@H]1C[C@H](OC(=O)c2nc(C)co2)C(=O)[C@H]2[C@@]1(C)CC[C@H]1C(=O)O[C@H](c3ccoc3)C[C@]21C,5990,,,> 10,
CCc1ncc(NC(=O)O[C@H]2C[C@@H](C(=O)OC)[C@]3(C)CC[C@H]4C(=O)O[C@H](c5ccoc5)C[C@]4(C)[C@H]3C2=O)cn1,7460,,,> 10,

Compound,EC50 (uOR [1]) [nM],EC50 (uOR [2]) [µM],Max Fold Efficacy (uOR [2]; [3]),EC50 (uOR [2]; [4]) [µM],Max Fold Efficacy (uOR [2])
COC(=O)[C@@H]1C[C@H](OC(=O)Nc2ccc(C#N)cc2)C(=O)[C@H]2[C@@]1(C)CC[C@H]1C(=O)O[C@H](c3ccoc3)C[C@]21C [Formula Ia-i],35.5,9.85 ± 0.153,9.5,,
COC(=O)[C@@H]1C[C@H](OC(=O)Nc2ccc(C)cc2)C(=O)[C@H]2[C@@]1(C)CC[C@H]1C(=O)O[C@H](c3ccoc3)C[C@]21C [Formula Ia-ii],108,,8.8,> 10,
COC(=O)[C@@H]1C[C@H](OC(=O)Nc2ccc(Cl)cc2)C(=O)[C@H]2[C@@]1(C)CC[C@H]1C(=O)O[C@H](c3ccoc3)C[C@]21C [Formula Ia-iii],146,,7.6,> 10,
COC(=O)[C@@H]1C[C@H](OC(=O)Nc2ccc(F)cc2)C(=O)[C@H]2[C@@]1(C)CC[C@H]1C(=O)O[C@H](c3ccoc3)C[C@]21C [Formula Ia-iv],156,,4.3,> 10,
COC(=O)[C@@H]1C[C@H](OC(=O)Nc2ccc(OC(F)F)cc2)C(=O)[C@H]2[C@@]1(C)CC[C@H]1C(=O)O[C@H](c3ccoc3)C[C@]21C [Formula Ia-v],162,,9.5,> 10,
COC(=O)[C@@H]1C[C@H](OC(=O)Nc2ccc(C(F)(F)F)cc2)C(=O)[C@H]2[C@@]1(C)CC[C@H]1C(=O)O[C@H](c3ccoc3)C[C@]21C [Formula Ia-vi],327,,5.1,> 10,
COC(=O)[C@@H]1C[C@H](OC(=O)Nc2ccc(F)c(F)c2)C(=O)[C@H]2[C@@]1(C)CC[C@H]1C(=O)O[C@H](c3ccoc3)C[C@]21C [Formula Ia-vii],412,,2.2,> 10,
COC(=O)[C@@H]1C[C@H](OC(=O)Nc2ccc(Cl)cc2F)C(=O)[C@H]2[C@@]1(C)CC[C@H]1C(=O)O[C@H](c3ccoc3)C[C@]21C [Formula Ia-viii],522,,2.3,> 10,
COC(=O)[C@@H]1C[C@H](NC(=O)NC(=O)c2ccccc2)C(=O)[C@H]2[C@@]1(C)CC[C@H]1C(=O)O[C@H](c3ccoc3)C[C@]21C [Formula Ib-i],610,,3.14,> 10,
COC(=O)[C@@H]1C[C@H](OC(=O)NC(=O)c2ccccc2)C(=O)[C@H]2[C@@]1(C)CC[C@H]1C(=O)O[C@H](c3ccoc3)C[C@]21C [Formula Ib-ii],633,,4.8,> 10,
COC(=O)[C@@H]1C[C@H](OC(=O)Nc2csc(C)n2)C(=O)[C@H]2[C@@]1(C)CC[C@H]1C(=O)O[C@H](c3ccoc3)C[C@]21C [Formula Ic-i],0.854,2.07 ± 0.649,31.3,,
COC(=O)[C@@H]1C[C@H](OC(=O)Nc2nc(C)cs2)C(=O)[C@H]2[C@@]1(C)CC[C@H]1C(=O)O[C@H](c3ccoc3)C[C@]21C [Formula Ic-ii],25.2,,3.8,> 10,
COC(=O)[C@@H]1C[C@H](OC(=O)Nc2cnc(C)cn2)C(=O)[C@H]2[C@@]1(C)CC[C@H]1C(=O)O[C@H](c3ccoc3)C[C@]21C [Formula Ic-iii],35.7,,9.5,> 10,
COC(=O)[C@@H]1C[C@H](OC(=O)Nc2cnc(C)nc2)C(=O)[C@H]2[C@@]1(C)CC[C@H]1C(=O)O[C@H](c3ccoc3)C[C@]21C [Formula Ic-iv],79.1,,2.8,> 10,
COC(=O)[C@@H]1C[C@H](OC(=O)Nc2cc(C)on2)C(=O)[C@H]2[C@@]1(C)CC[C@H]1C(=O)O[C@H](c3ccoc3)C[C@]21C [Formula Ic-v],118,,2.4,> 10,
COC(=O)[C@@H]1C[C@H](OC(=O)c2cnc(C)nc2)C(=O)[C@H]2[C@@]1(C)CC[C@H]1C(=O)O[C@H](c3ccoc3)C[C@]21C [Formula Id-i],2.85,,4.2,> 10,
Met-Enkephalin [reference compound],,,,,38.3
